In ChEMBL document CHEMBL1133994, “Design and synthesis of sialyl Lewis x mimics as E-selectin inhibitors” (Bioorg Med Chem Lett, 2001):

These compounds were tested against T1, E-selectin (Homo sapiens, UniProt P16581) (assay: In vitro inhibitory activity against Selectin E binding to human recombinant AGP (alpha-1 acid glycoprotein)).
T1 sequence (P16581 whole entry): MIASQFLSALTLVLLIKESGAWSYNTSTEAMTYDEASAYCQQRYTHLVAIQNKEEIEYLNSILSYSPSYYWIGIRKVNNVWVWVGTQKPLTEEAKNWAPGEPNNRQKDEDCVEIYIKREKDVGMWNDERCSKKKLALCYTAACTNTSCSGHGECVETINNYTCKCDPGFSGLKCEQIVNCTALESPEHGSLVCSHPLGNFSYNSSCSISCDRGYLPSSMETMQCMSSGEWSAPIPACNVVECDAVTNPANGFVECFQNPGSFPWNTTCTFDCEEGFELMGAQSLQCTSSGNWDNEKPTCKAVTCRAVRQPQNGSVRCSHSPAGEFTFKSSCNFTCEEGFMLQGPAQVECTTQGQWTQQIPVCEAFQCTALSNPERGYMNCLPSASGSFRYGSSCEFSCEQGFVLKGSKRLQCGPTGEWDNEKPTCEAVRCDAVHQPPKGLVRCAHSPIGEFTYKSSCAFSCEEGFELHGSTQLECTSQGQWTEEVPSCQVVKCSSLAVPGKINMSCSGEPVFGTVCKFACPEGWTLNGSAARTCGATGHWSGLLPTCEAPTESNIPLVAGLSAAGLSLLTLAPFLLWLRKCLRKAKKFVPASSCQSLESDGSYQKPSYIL

IC50 [mM] | SMILES
3 | O=C(O)CC[C@H](NC(=O)CC1OC(CO)C(O)C(O)C1O)C(=O)O (some centres not stated)
6.7 | NC(=O)[C@H](Cc1ccccc1)NCC1OC(CC(=O)N[C@@H](CCC(=O)O)C(=O)O)C(O)C(O)C1O (some centres not stated)
7 | O=C(O)CC[C@@H](NC(=O)CC1OC(CO)C(O)C(O)C1O)C(=O)O (some centres not stated)
1.6 | O=C(O)CC[C@H](NC(=O)CC1OC(CN2CCC(O)(Cc3ccccc3)CC2)C(O)C(O)C1O)C(=O)O (some centres not stated)
> 10 | O=C(O)CCCc1ccc(NC(=O)CC2OC(CO)C(O)C(O)C2O)cc1 (configuration not stated)
6 | O=C(O)CC[C@H](NC(=O)CC1OC(CNc2cc(C(=O)O)cc(C(=O)O)c2)C(O)C(O)C1O)C(=O)O (some centres not stated)
> 10 | NC(=O)CC[C@@H](NC(=O)CC1OC(CO)C(O)C(O)C1O)C(=O)O (some centres not stated)
8 | CC1CCCC(N(C)CC2OC(CC(=O)N[C@@H](CCC(=O)O)C(=O)O)C(O)C(O)C2O)C1 (some centres not stated)
6 | O=C(O)C[C@@H](NC(=O)CC1OC(CO)C(O)C(O)C1O)C(=O)O (some centres not stated)
10 | O=C(O)CCc1ccc(NC(=O)CC2OC(CO)C(O)C(O)C2O)cc1 (configuration not stated)
7 | NCCCC[C@@H](NC(=O)CC1OC(CO)C(O)C(O)C1O)C(=O)O (some centres not stated)

Each compound was assayed against T1, E-selectin (assay: In vitro inhibitory activity against binding of Selectin E to human recombinant AGP (alpha-1 acid glycoprotein) at a concentration of 10 mM; NA- Not active).

IC50 | SMILES
Not Active | Cc1cccc(N2CCN(CC3OC(CC(=O)N[C@@H](CCC(=O)O)C(=O)O)C(O)C(O)C3O)CC2)c1C (some centres not stated)
Not Active | NC(=O)CC1OC(CO)C(O)C(O)C1O (configuration not stated)
Not Active | O=C(O)C(NCCC1OC(CO)C(O)C(O)C1O)c1cc2ccccc2[nH]1 (configuration not stated)
Not Active | O=C(O)c1cc(NCCC2OC(CO)C(O)C(O)C2O)cc(C(=O)O)c1 (configuration not stated)
Not Active | NC(=O)[C@H]1CCCN1CC1OC(CC(=O)N[C@@H](CCC(=O)O)C(=O)O)C(O)C(O)C1O (some centres not stated)

SMILES | IC50
C[C@@H](Cc1ccccc1)N(C)CC1OC(CC(=O)N[C@@H](CCC(=O)O)C(=O)O)C(O)C(O)C1O (some centres not stated) | Not Active
